Data: patent US5370861A, “Iodinated esters contrast medium and use” (Nycomed Imaging AS, priority 1989, dated 1994)

How the values were obtained:
[1] = In vitro biodegradation control: hydrolysis in phosphate buffered saline (PBS), pH 7.4; type: physicochemical; details: read-out: substance hydrolysed in PBS
Procedure: (§1) The powdered product of Example 1 was suspended in Seronorm (0.5 mgml) at pH 7.4 and agitated at 37° C. As a control the experiment was also performed in phosphate buffered saline (PBS) at pH 7.4. At different time points samples were taken from the supernatant after centrifugation of the vial (4000 rpm, 10 rain). The release of Isopaque (5-(N-acetylamino)-3-(N-acetyl-N-methylamino)-2,4,6-triiodobenzene carboxylic acid) was analysed by HPLC. After 6 hours 100% of the substance was hydrolysed. In PBS only 1.1% was hydrolysed during the same period.

[2] = In vitro biodegradation: hydrolysis with release of Isopaque in Seronorm, pH 7.4, 37° C (HPLC); type: in vitro ADME; details: seronorm serum, Seronorm (0.5 mg/ml), read-out: substance hydrolysed after 6 hours in Seronorm
Procedure: The following Examples are given by way of illustration only. Seronorm is a test serum available from Nycomed AS, Oslo, Norway.
as §1

hepatocytes = details: in vivo, iv; cited from earlier work
liver = experiment: CT studies in rabbit: contrast enhancement in the liver; type: in vivo, rabbits; details: dynamic CT, iohexol 350 mg I/ml
Procedure: Contrast enhancement in the liver was investigated in rabbits. Anaesthetized animals were placed in a Siemens CT scanner and injected with particles of Pharmaceutical Formulation 4 in the marginal ear vein. Particle concentration was 28 mg/ml. A particle dose corresponding to 75 mg I/kg gave an increase in liver contrast from a basal level of […] to about 120 HU. Thus, the contrast enhancement on this dose level was about 35-40 HU. […] The average iodine content in these livers was 1.1 mg I/g liver. […] About 8 times more iodine had to be injected in these animals to achieve the same contrast enhancement of the liver. With this vascular contrast medium, the enhancement was transient, lasting for one or two minutes.

Compound: CCOC(=O)OC(C)OC(=O)c1c(I)c(NC(C)=O)c(I)c(N(C)C(C)=O)c1I (stereo not drawn) [Example 1, 1-(Ethyloxycarbonyloxy)ethyl 5-(N-acetylamino)-3-(N-acetyl-N-methylamino)-2,4,6-triiodobenzenecarboxylate]
- degraded at 6 h [1]: 1.1%
- metabolised at 6 h [2]: 100%

Compound: CCOC(=O)c1c(I)cc(I)c(NC(=O)CCCCC(=O)Nc2c(I)cc(I)c(C(=O)OCC)c2I)c1I [ethyl ester of iodipamide, ethyl ester of the water soluble X-ray contrast agent, iodipamide]
- lipid vacuoles in the hepatocytes (hepatocytes): increase in lipid vacuoles in the hepatocytes

Compound: CC(=O)N(CC(O)CO)c1c(I)c(C(=O)NCC(O)CO)c(I)c(C(=O)NCC(O)CO)c1I (stereo not drawn) [iohexol]
- duration of enhancement (liver): one or two
- iodine to be injected to achieve the same contrast enhancement of the liver, relative to Pharmaceutical Formulation 4 (liver): About 8 times
- nature of enhancement with vascular contrast medium (liver): transient
